The values that follow come from ChEMBL document CHEMBL3272252, “A novel prostaglandin endoperoxide mimic, prostaglandin F2alpha acetal” (J Med Chem, 1977).

Values after ≈ are worked out from the molar mass of the structure shown. Active and inactive are the calls of the source. The calls are words filed in the database; no cut-off is given here.

Series [1] is described as follows: Vasocontractile activity in gerbil colon assessed as smooth muscle contractile response relative to PGF2alpha. In kind it is functional, Gerbillinae, Muscle tissue.
Series [2] is described as follows: Vasocontractile activity in rabbit aorta assessed as smooth muscle contractile response relative to PGE2. The format is functional, Oryctolagus cuniculus, Muscle tissue.
A short description of series [3]: Vasocontractile activity in dog lateral saphenous vein assessed as smooth muscle contractile response relative to PGF2alpha. In kind it is functional, Canis lupus familiaris.
A short description of series [4]: (§1) Vasocontractile activity in dog lateral saphenous vein assessed as smooth muscle contractile response. In kind it is functional. The settings on record: Canis lupus familiaris, read-out: ED50 (the source's name).
Series [5] can be described thus: Stability of the compound in Krebs solution at pH 8.2 at 4 degC after 1 week. To be noted: buffer, pH 8.2, 168 h. In kind it is physicochemical.
The nature of series [6]: Retardation factor of the compound using CHCl3-EtOAc-HOAc at ratio of 50:50:1 as solvent system by thin layer chromatography. In kind it is physicochemical.
In series [7] the test system is Platelet. Description: Induction of irreversible platelet aggregation in human citrated platelet-rich plasma at 100 to 250 ng/ml. In kind it is functional.
Series [8] deals with Platelet. Put plainly: Induction of platelet aggregation in human citrated platelet-rich plasma assessed as internal contractile response with granules being squeezed into cell centre surrounded closely by microtubules and contractile microfilaments by transmission electron microscopy. In kind it is functional.
For series [9], the species on record is Canis lupus familiaris. The series is described as §1. The format is functional.
The nature of series [10]: Vasocontractile activity in dog lateral saphenous vein assessed as smooth muscle contractile response in presence of PG synthase inhibitor indomethacin. To be noted: Canis lupus familiaris. The format is functional, tissue-based.
Series [11] has as its system Gerbillinae. Description: Vasocontractile activity in gerbil colon assessed as smooth muscle contractile response. The format is functional, tissue-based. The settings on record: Muscle tissue.
The species entered for series [12] is Oryctolagus cuniculus. Description: Vasocontractile activity in rabbit aorta assessed as smooth muscle contractile response. In kind it is functional, tissue-based. To be noted: Muscle tissue.
The subject of series [13] is Platelet. Put plainly: Induction of reversible platelet aggregation in human citrated platelet-rich plasma at 0.7 to 4 ug/ml. The format is functional.
Series [14] relates to Platelet. Description: Induction of irreversible platelet aggregation in human citrated platelet-rich plasma at 5 to 10 ug/ml. In kind it is functional.
Series [15] has as its system Platelet. Put plainly: Induction of platelet aggregation in human citrated platelet-rich plasma in presence of 10 ug/ml PG synthase inhibitor indomethacin. The format is functional.

Turning to `CCCCC[C@H](O)/C=C/[C@@H]1[C@@H](C/C=C\CCCC(=O)O)[C@@H]2C[C@H]1OC(C)O2` (stereo in doubt; 1a) [listing 1 of 2 here], the Activity in series [1] was found to be 0.12%; in [2], 19%; in [3] it was 32%. Moreover, the EC50 in series [4] worked out at 5.8 ng/mL (≈ 0.0152 µM). In series [5], the Stability result was “Stable”. Further, in series [6], the Rf is recorded as 0.53.
As to `CCCCC[C@@H](/C=C/[C@@H]1[C@@H](C/C=C\CCCC(=O)O)[C@H]2C[C@H]1OO2)OO`, the Activity in series [1] was 1.5%; in series [2] it was 80%. Also, the result in [7] was Active.
For the molecule `CCCCC[C@H](O)/C=C/[C@@H]1[C@@H](C/C=C\CCCC(=O)O)[C@@H]2C[C@H]1OC(C)O2` (stereo in doubt; 1a) [listing 2 of 2 here], the result in [8], in series [10], in series [13], in series [14] and in series [15] was Active. Further, the Activity result in [9], in series [11] and in series [12] was “Dose-dependent effect” throughout.
Turning to `CCCCC[C@H](O)/C=C/[C@@H]1[C@@H](C/C=C\CCCC(=O)O)[C@@H]2C[C@H]1OC(C)O2` (mixture of isomers), in [6], the Rf is 0.49.
